Results published in patent US20050048563A1, “Membrane molecule indicator compositions and methods” (Novasite Pharmaceuticals, Inc, priority 2000, published 2005).

Experiments:
PLC = format: cell-based, mouse
[1] = test system: adrenal glomerulosa cells; test: Confocal PLCδ1PH-GFP translocation in adrenal glomerulosa cells; format: cell-based, bovine; details: angiotensin II stimulation, 2 mM Sr^2+ or Ca^2+

Compound: CCCCCCCC/C=C\CCCCCCCC(=O)OCC(O)COP(=O)(O)O (centres unmarked) [LPA, 1-oleoyl LPA]
- translocation amplitude relative to BK response control / BK-induced peak values (PLC): 25%

Compound: NCCc1c[nH]cn1 [histamine]
- duration of translocation response (PLC): ≥ 15 min
- translocation amplitude relative to BK response control / BK-induced peak values (PLC): 40%

Compound: aluminum fluoride [A1F^4−]
- desensitization of PLC activation (PLC): no desensitization
- onset of PLC activation (PLC): slow

Compound: angiotensin II (DRVYIHPF; Angiotensin-2; UniProt P01019 25-32, looked up)
- translocation of PLCδ1PH-GFP in presence of Sr^2+ versus Ca^2+ [1]: not significantly different

Compound: neurokinin A [NKA]
- desensitization of PLC activation on repeated NKA pulses (PLC): incremental partial homologous desensitization
- translocation of the probe (PLC activation profile) (PLC): fast and near-complete translocation
